The results in this text go back to US11191766B2, “Methods of treating pediatric cancers” (Loxo Oncology, Inc., priority 2016, dated 2021).

Where a name gives a salt, the structure may show the parent alone.

Data set [1] can be described thus: Hygroscopicity: dynamic vapor sorption (DVS) / exposure to humidity. Type of data set: physicochemical. The settings on record: for hygroscopicity: non-hygroscopic = less than a 2% weight gain at 25° C. and 80% RH after 24 to 48 hours. The method, then:
For the DVS measurement a sample of crystalline form (I-HS) was cycled through changing humidity conditions to determine its hygroscopicity. The sample was analyzed using a Surface Measurement System DVS-1 Dynamic Vapor Sorption System. […] Data was collected in 1 minute intervals. Nitrogen was used as the carrier gas. […] After completion of the sorption cycle, the sample was dried using the same procedure, but all the way down to 0% RH and finally taken back to the starting point of 20% RH. The weight change during the sorption/desorption cycles were plotted, allowing for the hygroscopic nature of the sample to be determined.
The crystalline form (I-HS), as noted previously, is non-hygroscopic. […] Given this tendency, use of the AM(HS) compound would require significant handling precautions during storage and manufacture to prevent this change in form from occurring whereas the crystalline form (I-HS) requires no such precautions during manufacture of the API.

Data set [2] can be described thus: Accelerated stability study in an LDPE bag at 40° C./75% RH for five weeks. It counts as physicochemical.
For data set [3] the following is noted: first two cycles; fever and influenza A considered not related.
The subject of data set [4] is Infantile Fibrosarcoma with NTRK3-ETV6 Fusion. Briefly: Phase 1 pediatric study of oral liquid formulation, case of infantile fibrosarcoma (MR imaging response). Type of data set: in vivo, human.
Data set [5] in a line: Flow properties (Carr's and Hausner Index). Type of data set: physicochemical. From the text:
The differences in flow properties can make the development of a solid oral dosage form more difficult for the amorphous API vs. the crystalline API.

For the compound `O=C(Nc1cnn2ccc(N3CCC[C@@H]3c3cc(F)ccc3F)nc12)N1CC[C@H](O)C1.O=S(=O)(O)O` [AM(HS), (S)—N-(5-((R)-2-(2,5-difluorophenyl)pyrrolidin-1-yl)-pyrazolo[1,5-a]pyrimidin-3-yl)-3-hydroxypyrrolidine-1-carboxamide hydrogen sulfate], the hygroscopicity entry in data set [1] is “deliquesce upon exposure to humidity”. Moreover, the “chemical impurity levels over the course of the study” value in data set [2] was “neither the AM(HS) or crystalline form (I-HS) exhibited a significant changes in chemical impurity levels”.
As to `O=C(Nc1cnn2ccc(N3CCC[C@@H]3c3cc(F)ccc3F)nc12)N1CC[C@H](O)C1` [Compound I-HS, (S)—N-(5-((R)-2-(2,5-difluorophenyl)pyrrolidin-1-yl)-pyrazolo[1,5-a]pyrimidin-3-yl)-3-hydroxypyrrolidine-1-carboxamide hydrogen sulfate], the “adverse events related to compound” value in data set [3] is “no adverse events related to Compound I-HS”. Besides, in data set [4] (end of Cycle 2, size reduction confirmed, continued decrease in enhancement), the “response on repeat scans” value is “partial response”. For the same compound, the “interval reduction in the size and enhancement of the mass from baseline (MR of the brain and neck)” value in data set [4] (end of cycle 1 (day 28), BID, patient) is on record as “more than 90%”. The “clinical observation noted by the parents” value in data set [4] (throughout cycle 1) was “improved engagement and playfulness”.
On to `O=C(Nc1cnn2ccc(N3CCC[C@@H]3c3cc(F)ccc3F)nc12)N1CC[C@H](O)C1` [crystalline form (I-HS), (S)—N-(5-((R)-2-(2,5-difluorophenyl)pyrrolidin-1-yl)-pyrazolo[1,5-a]pyrimidin-3-yl)-3-hydroxypyrrolidine-1-carboxamide hydrogen sulfate], for which, in data set [5], the “flow properties compared with amorphous API” value is recorded as “better flow properties”. In addition, in data set [1], the “change in crystalline form during DVS (XRPD post vs pre DVS)” value is given as “no change” and the hygroscopicity result is reported as “non-hygroscopic”. Further, the “hysteresis between sorption and desorption cycles” value in data set [1] (DVS) is on record as “very small hysteresis”. Further, in data set [1] (between 0% and 90% RH), the “increase in mass during the sorption cycle” value is on record as “about 1.7%”. Moreover, the “chemical impurity levels over the course of the study” value in data set [2] is “neither the AM(HS) or crystalline form (I-HS) exhibited a significant changes in chemical impurity levels”.
